Laboratory results published in patent US5635534A, “Aromatic amino-alcohol derivatives having anti-diabetic and anti-obesity properties, their preparation and their therapeutic uses” (Sankyo Company, Limited, priority 1991, dated 1997).
Counter-ions that a name gives are not always drawn. Like-named read-outs stand apart in the source and are kept apart here.

How the values were obtained:
KK male mice = assay: Hypoglycemic effect during glucose load in mice; format: in vivo, mouse; conditions: 1 mg/kg oral, 4 mice; for inhibition in vivo at 1 mg/kg: Mus musculus, po
Protocol: Hypoglycemic effect during glucose load
The hypoglycemic effect of the compounds of the present invention during glucose load in mice was measured as follows.
Three month old KK male mice, each weighing 28 to 30 g, were fasted overnight, and then 1 mg/kg of the compound to be tested or carboxymethylcellulose (CMC) as a control was administered orally. After 60 minutes, 1.2 g/kg of D-glucose was administered subcutaneously. Then, at 60 and 120 minutes after the subcutaneous glucose injection, blood samples were taken, and the glucose levels were determined by means of a glucose analyzer (GL-101, a product of Mitsubishi Kasei, Co.). The hypoglycemic rates (R) of the test compound during the glucose load were calculated according to the following equation: […]
A: Blood glucose level in the group administered CMC
B: Blood glucose level in the group administered a test sample.

[1] = molecular target: T1, Bovine lens aldose reductase (Bos taurus, UniProt P16116); assay: Inhibition of Aldose reductase; format: biochemical; conditions: for inhibition at 5 µg/mL: 5 μg/ml
T1 construct: Bovine lens aldose reductase was separated and partially purified; from tissue; host or cells: bovine lens
Protocol: Inhibition of Aldose reductase
Bovine lens aldose reductase was separated and partially purified by the method of S. Hyman and J. H. Kinoshita [J. Biol. Chem., 240, 877 (1965)] and K. Inagaki, I. Miwa and J. Okuda [Arch. Biochem. Biophys., 316, 337 (1982)], and its activity was determined photometrically by the method of Varma et al. [Biochem. Pharmac., 25, 2505 (1976)]. Inhibition of enzyme activity was measured for the compounds of the present invention at a concentration of 5 μg/ml, and the results are shown in the following Table 10.

[2] = tested on: male mice of the ddY strain; assay: Toxicity, oral administration to mice, one week observation; format: in vivo, mouse; conditions: 300 mg/kg oral; for survival at the end of the period of observation: groups of 3, one week; for abnormalities which could be attributed to the test compounds: groups of 3, one week observation
Protocol: The test animals employed were male mice of the ddY strain. The animals were employed in groups of 3. The test compound was administered orally to each animal group at a dose of 300 mg/kg body weight. The compounds employed were those prepared as described in Examples 1, 3, 8, 24, 47 and 48.

[3] = 1 h, 60 min after subcutaneous glucose 1.2 g/kg, read-out: Hypoglycemic rate during glucose load, 60 min.
[4] = 2 h, 120 min after subcutaneous glucose 1.2 g/kg, read-out: Hypoglycemic rate during glucose load, 120 min.

Row | SMILES | inhibition in vivo at 1 mg/kg (KK male mice; [3]) | inhibition in vivo at 1 mg/kg (KK male mice; [4]) | other results
1 | COC(=O)Cc1ccc(OCC(C)NCC(O)c2cccc(Cl)c2)cc1 (stereo not shown) [Example 24, 2-[2-(4-Methoxycarbonylmethylphenoxy)-1-methylethyl]amino-1-(3-chloropbenyl)ethanol fumarate] |  |  | Hypoglycemic rate during glucose load, 60 min. (KK male mice; 60 min after subcutaneous glucose 1.2 g/kg): 61.4%; Hypoglycemic rate during glucose load, 120 min. (KK male mice; 120 min after subcutaneous glucose 1.2 g/kg): 56.9%
2 | COC(=O)Cc1ccc(OC[C@@H](C)NC[C@H](O)c2ccccc2)cc1 [Example 27, 2-[2-(4-Methoxycarbonylmethylphenoxy)-1(R)-methylethyl]amino-1(R)-phenylethanol] | 68.4% | 52.1% | 
3 | COC(=O)C(O)Cc1ccc(OCC(C)NCC(O)c2cccc(Cl)c2)cc1 (stereo not shown) [Example 6, 2-{2-[4-(2-Methoxycarbonyl-2-hydroxyethyl)phenoxy]-1-methylethyl}amino-1-(3-chlorophenyl)ethanol] | 43.4% | 40.5% | 
4 | CC(COc1ccc(CC(=O)O)cc1Cl)NCC(O)c1cccc(Cl)c1 (stereo not shown) [Example 36, 2-[2-(4-Carboxymethyl-2-chlorophenoxy)-1-methylethyl]amino-1-(3-chlorophenyl)ethanol] |  |  | IC50 [1]: 7.28 µM; inhibition at 5 µg/mL [1]: 60.4%
5 | COC(=O)Cc1ccc(OCC(C)NCC(O)c2cc(Cl)cc(Cl)c2)cc1 (stereo not shown) [Example 40, 2-[2-(4-Methoxycarbonylmethylphenoxy)-1-methylethyl]amino-1-(3,5-dichlorophenyl)ethanol] | 37.9% | 24.5% | 
6 | CC(COc1ccc(CCO)cc1)NCC(O)c1cccc(Cl)c1 (stereo not shown) [Example 8, 2-{2-[4-(2-Hydroxyethyl)phenoxy]-1-methylethyl}amino-1-(3-chlorophenyl)ethanol] | 56.8% | 45.1% | 
7 | CC(COc1ccc(CO)cc1)NCC(O)c1cccc(Cl)c1 (stereo not shown) [Example 1, 2-[2-(4-Hydroxymethylphenoxy)-1-methylethyl]-amino-1-(3-chlorophenyl)ethanol] |  |  | survival at the end of the period of observation [2]: All animals were alive; abnormalities which could be attributed to the test compounds [2]: no abnormalities
8 | COC(=O)Cc1ccc(OC[C@@H](C)NC[C@H](O)c2cccc(Cl)c2)cc1.O=C(O)/C=C/C(=O)O [Example 47, 2-[2-(4-Methoxycarbonylmethylphenoxy)-1(R)-methylethyl]amino-1(R)-(3-chlorophenyl)ethanol fumarate] | 60.9% | 51.5% | survival at the end of the period of observation [2]: All animals were alive; abnormalities which could be attributed to the test compounds [2]: no abnormalities
9 | C[C@H](COc1ccc(CC2SC(=O)NC2=O)cc1)NC[C@H](O)c1cccc(Cl)c1 (stereo partly drawn) [Example 48, 5-[4-{2(R)-[2(R)-(3-Chlorophenyl)-2-hydroxyethylamino]propoxy}benzyl]thiazolidine-2,4-dione] |  |  | inhibition at 5 µg/mL [1]: 47.5%
10 | CC(COc1ccc(CC(=O)NO)cc1Cl)NCC(O)c1cccc(Cl)c1 (stereo not shown) [Example 34, 2-{2-[2-Chloro-4-(N-hydroxycarbamoylmethyl)phenoxy]-1-methylethyl}amino-1-(3-chlorophenyl)ethanol] |  |  | IC50 [1]: 6.05 µM; inhibition at 5 µg/mL [1]: 63.3%
11 | COC(=O)Cc1ccc(OCC(C)NCC(O)c2ccc(F)c(Cl)c2)cc1 (stereo not shown) [Example 41, 2-[2-(4-Methoxycarbonylmethylphenoxy)-1-methylethyl]amino-1-(3-chloro-4-fluorophenyl)ethanol] | 50.1% | 43% | 
12 | COC(=O)Cc1ccc(OCC(C)NCC(O)c2cccc(OC)c2)cc1 (stereo not shown) [Example 44, 2-[2-(4-Methoxycarbonylmethylphenoxy)-1-methylethyl]amino-1-(3-methoxyphenyl)ethanol] | 38.1% | 24.8% | 
13 | COC(=O)Cc1ccc(OCC(C)NCC(O)c2cccc(Cl)c2)cc1 (stereo not shown) [Example 3, 2-[2-(4-Methoxycarbonylmethylphenoxy)-1-methylethyl]-amino-1-(3-chlorophenyl)ethanol] | 67.3% | 56.5% | 
14 | COC(=O)Cc1ccc(OCC(C)NCC(O)c2cccc(Br)c2)cc1 (stereo not shown) [Example 42, 2-[2-(4-Methoxycarbonylmethylphenoxy)-1-methylethyl]amino-1-(3-bromophenyl)ethanol] | 60.9% | 57.6% | 
15 | COC(=O)Cc1ccc(OCC(C)NCC(O)c2cccc(C(F)(F)F)c2)cc1 (stereo not shown) [Example 43, 2-[2-(4-Methoxycarbonylmethylphenoxy)-1-methylethyl]amino-1-(3-trifluoromethylphenyl)ethanol] | 66.5% | 58.6% | 
